Earlier results in patent US20040136904A1, “Dry powder compositions comprising labelled particles for inhalation” (priority 2001, published 2004).

Settings: in vivo

## [Na+].[O]=[Tc](=[O])(=[O])[O-] [sodium pertechnetate]
  time in which 50% is removed from the surface of the lung: ~10 min
